According to patent US20170007610A1, “NOVEL HETEROBICYCLIC COMPOUNDS AS KAPPA OPIOID AGONISTS” (priority 2014, published 2017):

Tests used:
kappa opioid receptor [1] = molecular target: T1, kappa opioid receptor (Mus musculus, UniProt P33534); experiment: Ex-vivo KOR agonistic activity, electrically stimulated mouse vas deferens (MVD) model
T1 construct: from tissue; host or cells: mouse vas deferens (male Swiss Albino mice)
Method: a) Ex-Vivo KOR Agonistic Activity Testing, Using Electrically Stimulated Mouse Vas Deferens (MVD) Model:
Ex-vivo, the kappa opioid receptor agonistic activity of test compounds were tested on the electrically stimulated mouse vas deferens (MVD) preparations (Henderson et al., Br. J. Pharmacol., 46, 764-766, 1972; Portoghese et al., Life Sci. 36, 801-805, 1985) and IC50 were determined. In general, vas deferentia were taken from male Swiss Albino mice (30-40 g) and suspended in 8 ml organ baths, at 31° C., containing modified Krebs-Henseleit solution, without magnesium sulphate. Each vas deferens was equilibrated for 45 min at 2.6 mN tension and then stimulated at supramaximal voltage with five 1 ms pulses, at a frequency of 0.1 Hz. Concentration-response curves were determined by cumulative dosing. Inhibitory Concentration, 50% (IC50) values were determined by Sigmoidal dose-response (variable slope) equation, using Prizm v 6.01. The kappa opioid receptor specificity was determined by rightward shift in concentration-response curves in presence of 1 nM norbinaltorphimine (norBNI), a selective kappa opioid receptor antagonist.

kappa opioid receptor [2] = molecular target: T2, kappa opioid receptor (Homo sapiens, UniProt P41145); experiment: Invitro KOR agonistic activity, cAMP based functional assay; assay type: cell-based
T2 construct: grown in complete Ham's F-12 medium

ICR mice [3] = experiment: Acetic acid-induced writhing model; assay type: in vivo; conditions: Mus musculus, 0.25 h, acetic acid induced pain model, oral or i.v. administration, writhes for 15 min, read-out: In-vivo ED50
Method: (§1) All the animal experiments were carried out in ICR mice, bred in-house. Animals were housed in groups of 6 animals per cage, for a week, in order to habituate them to vivarium conditions (25±4° C., 60-65% relative humidity, 12:12 h light: dark cycle, with lights on at 7.30 am). All the animal experiments were carried out according to the internationally valid guidelines following approval by the ‘Zydus Research Center animal ethical committee’.
Following oral or i.v. administration of test compounds, mice are rested for 5 min before i.p. injection with 10 ml/kg of 0.6% v/v acetic acid in normal saline. […] A writhe is defined as a constriction of the abdominal area, often with extension of the hind legs. Percentage maximum possible effect (MPE) was calculated as below:
% MPE=100−[(No. of writhes in treated mice/No. of writhes in vehicle treated mice)]×100
ED50 dose is determined using GraphPad Prism.

ICR mice [4] = experiment: Assessment of CNS effects (spontaneous locomotion, sedation, catalepsy), threshold dose; assay type: in vivo; conditions: lowest dose which shows pharmacodynamic effect (locomotion, sedation, catalepsy), oral or i.v.
Method: as §1
Assessment of CNS Effects of Test Compounds
Test compounds were dissolved in normal saline injected by oral or i.v., routes in ICR mice tail vein. […] The dose is scaled down or up if pharmacodynamic effect is present or absent respectively.

T2 sequence (P41145 whole entry): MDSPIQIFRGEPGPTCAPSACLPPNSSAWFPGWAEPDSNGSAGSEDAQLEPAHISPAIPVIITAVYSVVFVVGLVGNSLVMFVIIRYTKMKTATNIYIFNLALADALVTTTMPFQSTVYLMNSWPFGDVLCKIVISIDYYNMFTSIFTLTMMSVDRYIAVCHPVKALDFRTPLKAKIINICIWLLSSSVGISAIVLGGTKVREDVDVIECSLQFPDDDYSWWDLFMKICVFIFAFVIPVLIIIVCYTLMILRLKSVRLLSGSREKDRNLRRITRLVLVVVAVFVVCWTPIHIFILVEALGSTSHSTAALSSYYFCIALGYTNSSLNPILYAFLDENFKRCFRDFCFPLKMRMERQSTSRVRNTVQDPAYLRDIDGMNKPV
T1 sequence (P33534 whole entry): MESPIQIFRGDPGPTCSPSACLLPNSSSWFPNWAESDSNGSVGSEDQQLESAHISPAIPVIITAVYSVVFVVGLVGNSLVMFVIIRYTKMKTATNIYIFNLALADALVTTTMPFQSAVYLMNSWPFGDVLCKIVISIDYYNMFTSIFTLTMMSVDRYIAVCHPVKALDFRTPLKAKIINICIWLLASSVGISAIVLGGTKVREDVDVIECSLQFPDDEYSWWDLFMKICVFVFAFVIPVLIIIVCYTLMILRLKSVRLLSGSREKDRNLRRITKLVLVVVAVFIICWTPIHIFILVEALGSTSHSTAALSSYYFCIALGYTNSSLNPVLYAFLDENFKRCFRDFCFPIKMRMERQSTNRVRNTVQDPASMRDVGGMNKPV

| Compound | IC50 (kappa opioid receptor [1]) [nM] | EC50 (kappa opioid receptor [2]) [nM] | ED50 (ICR mice [3]) [mg/kg] | CNS TD (ICR mice [4]) [mg/kg] |
| --- | --- | --- | --- | --- |
| CN(C(=O)COc1ccc(NS(=O)(=O)N(C)C)c2c1CCCN2)[C@H](CN1CC[C@H](O)C1)c1ccccc1 [Compound 32, 2-((8-((N,N-dimethylsulfamoyl)amino)-1,2,3,4-tetrahydroquinolin-5-yl)oxy)-N-((S)-2-((S)-3-hydroxypyrrolidin-1-yl)-1-phenylethyl)-N-methylacetamide] | 0.49 | 0.013 | 4.7 | 100 |
| CN(C(=O)COc1ccc(NS(C)(=O)=O)c2ncccc12)[C@H](CN1CC[C@H](O)C1)c1cccc(N)c1 [Compound 43, N-((S)-1-(3-aminophenyl)-2-((S)-3-hydroxypyrrolidin-1-yl)ethyl)-N-methyl-2-((8-(methylsulfonamido)quinolin-5-yl)oxy) acetamide] | 1.6 | 0.006 | 2.1 | 30 |
| CN(C(=O)COc1ccc(NS(C)(=O)=O)c2ncccc12)[C@H](CN1CC[C@H](O)C1)c1cccc(NS(C)(=O)=O)c1 [Compound 44] | 5.4 | 0.036 | 2.3 | 10 |
| CN(C(=O)COc1ccc(NS(C)(=O)=O)c2ncccc12)[C@H](CN1CC[C@H](O)C1)c1cccc(O)c1 [Compound 48, N-((S)-1-(3-hydroxyphenyl)-2-((S)-3-hydroxypyrrolidin-1-yl)ethyl)-N-methyl-2-((8-(methylsulfonamido)quinolin-5-yl)oxy) acetamide] | 1.3 | 0.021 | 3.1 | 30 |
| CN(C(=O)COc1ccc2c(c1)OCO2)[C@H](CN1CC[C@H](O)C1)c1cccc(NS(C)(=O)=O)c1 [Compound 57, 2-(benzo[d][1,3]dioxol-5-yloxy)-N-((S)-2-((S)-3-hydroxypyrrolidin-1-yl)-1-(3-(methylsulfonamido)phenyl)ethyl)-N-methylacetamide] | 27 | 0.961 | 1.9 | 60 |
